Assay results: US20140336109A1, “MODULATION OF GHRELIN LEVELS AND GHRELIN/UNACYLATED GHRELIN RATIO USING UNACYLATED GHRELIN” (Alize Pharma SAS, priority 2011, published 2014)
Where no end group is shown, it is not given here.

Columns and labels:
T2DM subjects = experiment: Side effects and laboratory safety parameters during UAG infusion; type: in vivo, human; conditions: during infusions with UAG 3 and 10 μg/kg/hr, 15 hours
Method: A continuous overnight (15 hours) infusion of two doses of UAG (3 μg UAG/kg/hr and 10 μg UAG/kg/hr) versus placebo in a cross-over model on the AG concentrations was performed in eight overweight subjects with type 2 diabetes. FIG. 1 depicts a schematic representation of the study protocol. Glucose and insulin responses to a standard breakfast meal (SBM) in the subjects and reasonable metabolic control were assessed.
Study design—Single-center, investigator initiated, double blind and placebo controlled randomized study. During the first visit medical history, medication use and vital signs of subjects were checked. Blood samples were also taken for chemistry and hematology analysis. […]
Standard breakfast meal (SBM) consisted of: • 3 slices wheat bread; p1 3 portions of margarine; • 2 slices of cheese (48% fat); • 1 portion of jam; • 1 cup of whole milk; and • 1 boiled egg; for a total of 714 kcal (17% proteins; 46% fat; and 37% carbohydrates). […] At each of the 3 visits, the following safety parameters were assessed: hemoglobin, hematocrit, platelet count, WBC count, RBC count, and differential and were determined using Sysmex XE 2100, Firma Sysmex, Ecustraat 11, 4879 NP Etten-Leur. […] Serum glucose levels (using the in-house glucokinase assay) were also assessed every 30 minutes and starting before, and continuing for 4 hours after, the SBM. […]

[1] = U.S. Pat. Nos. 8,222,217 and 8,318,664; cited from earlier work
Sprague-Dawley rats = experiment: AG-induced food intake in rats; type: in vivo; conditions: rat; i.p. 42 μg/kg + AG 13 μg/kg; 30 min, 1 h, 2 h
Method: With respect to the experimental data presented in FIG. 8, Sprague-Dawley rats of 7 weeks of age, weighing between 275 g and 300 g, were fed a pellet diet ad libitum and were singly housed in plastic cage. The experiment was performed at 2.5 h after the onset of the light cycle in freely fed rats. The rates were i.p. injected simultaneously with vehicle plus vehicle, vehicle+AG (13 μg/kg) or cyclised UAG (6-13) (SEQ ID NO: 25) (42 μg/kg)+AG (13 μg/kg). Immediately after the completion of the i.p. injection in rats, the night-ad-libitum food was removed and replaced by 2 pellets for each animal, previously weighed, placed into the top of the cage. Food intake was calculated as the difference between the food weight before and after the feeding period at each time interval (30 min, 1 h, and 2 h). Cumulative food intake was calculated by summating the values of the different time periods.

| Compound | activity on glucose, insulin and lipid metabolisms relative to UAG full length [1] | other results |
| --- | --- | --- |
| CC(C)C[C@H](NC(=O)[C@H](CCCCN)NC(=O)[C@H](C)NC(=O)[C@@H]1CCCN1C(=O)[C@@H]1CCCN1C(=O)[C@H](CCCCN)NC(=O)[C@H](CCCCN)NC(=O)[C@H](CO)NC(=O)[C@H](CCC(=O)O)NC(=O)[C@H](CCCCN)NC(=O)[C@H](CCCNC(=N)N)NC(=O)[C@H](CCC(N)=O)NC(=O)[C@H](CCC(N)=O)NC(=O)[C@@H](NC(=O)[C@H](CCCNC(=N)N)NC(=O)[C@H](CCC(N)=O)NC(=O)[C@H](Cc1cnc[nH]1)NC(=O)[C@H](CCC(=O)O)NC(=O)[C@@H]1CCCN1C(=O)[C@H](CO)NC(=O)[C@H](CC(C)C)NC(=O)[C@H](Cc1ccccc1)NC(=O)[C@H](CO)NC(=O)[C@H](CO)NC(=O)CN)C(C)C)C(=O)N[C@@H](CCC(N)=O)C(=O)N1CCC[C@H]1C(=O)N[C@@H](CCCNC(=N)N)C(=O)O [UAG] |  | laboratory evaluations (chemistry or parameters) (T2DM subjects): no significant changes; side effects reported by subjects (T2DM subjects): did not report more side effects than placebo |
| EHQRVQ [UAG (8-13)] | retain the activity of UAG full length |  |
| Glu-His-Gln-Arg (EHQR; listed as Homo sapiens) [UAG (8-11)] | retain the activity of UAG full length |  |
| Glu-His-Gln-Arg-Val (EHQRV; listed as Homo sapiens) [UAG (8-12)] | retain the activity of UAG full length |  |
| His-Gln-Arg (HQR; listed as Homo sapiens) [UAG (9-11)] | retain the activity of UAG full length |  |
| His-Gln-Arg-Val (HQRV; listed as Homo sapiens) [UAG (9-12)] | retain the activity of UAG full length |  |
| SPEHQRVQ [UAG (6-13)] | retain the activity of UAG full length |  |
| Ser-Pro-Glu-His-Gln-Arg-Val-Gln (cycl) (SPEHQRVQ; also: cyclic, linkage type not given here; listed as Homo sapiens) [cyclic UAG (6-13)] |  | orexigenic effects (food intake) induced by AG (Sprague-Dawley rats): able to counteract the orexigenic effects induced by AG |
